Measurements reported in patent publication US8916557B2, “Substituted 4-Aryl-N-phenyl-1,3,5-triazin-2-amines” (Bayer Intellectual Property GmbH, priority 2011, dated 2014).

Assays:
CDK9/CycT1 = biological target: T1, CDK9/CycT1 (Homo sapiens, UniProt P50750); test: CDK9/CycT1 kinase assay (TR-FRET); format: biochemical; settings: Method 1, 10 μM ATP
T1 construct: Recombinant full-length His-tagged human CDK9 and CycT1; His; purchased Invitrogen PV4131; host or cells: insect cells
How it was run: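 Full-length His-tagged human CDK9/CycT1 (insect-cell expressed), 15 min compound pre-incubation, then 25 min at 22 °C with 10 µM ATP (final) and 1 µM biotinylated peptide (final) in Tris pH 8.0/MgCl2 buffer. Phospho-substrate detected by TR-FRET (anti-RB pSer807/pSer811, Eu anti-mouse IgG, streptavidin-XL665); 665/622 nm emission ratio as read-out.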

CDK2/CycE = biological target: T2, CDK2/CycE (Homo sapiens, UniProt P24941); test: CDK2/CycE kinase assay (TR-FRET); format: biochemical; settings: Method 2, 10 μM ATP
T2 construct: GST; purchased ProQinase GmbH (Freiburg, Germany); host or cells: insect cells (Sf9)
How it was run: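 GST-CDK2/GST-CycE (Sf9-expressed, ~130 ng/ml) pre-incubated with compound 15 min, then reacted 25 min at 22 °C with 10 μM ATP and 0.75 μM biotinylated peptide in Tris pH 8.0. Phospho-substrate detected by TR-FRET (anti-pRb pSer807/811, Eu/XL665), 665/620 nm ratio.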

[1] = system: HeLa human cervical tumour cells; test: Proliferation assay (crystal violet), HeLa; format: cell-based; settings: read-out: Inhibition of HeLa cell proliferation
Protocol: Cultivated tumour cells (NCI-H460, human non-small cell lung carcinoma cells, ATCC HTB-177; DU 145, hormone-independent human prostate carcinoma cells, ATCC HTB-81; HeLa-MaTu, human cervical carcinoma cells, EPO-GmbH, Berlin; HeLa-MaTu-ADR, multidrug-resistant human cervical carcinoma cells, EPO-GmbH, Berlin; HeLa human cervical tumour cells, ATCC CCL-2; Caco-2 human colorectal carcinoma, ATCC HTB-37; B16F10 mouse melanoma cells, ATCC CRL-6475) were plated at a density of 5000 cells/well (DU145, HeLa-MaTu-ADR), 3000 cells/well (NCI-H460, HeLa-MaTu, HeLa), 1500 cells/well (Caco-2), or 1000 cells/well (B16F10) in a 96-well multititer plate in 200 μL of their respective growth medium supplemented 10% fetal calf serum. After 24 hours, the cells of one plate (zero-point plate) were stained with crystal violet (see below), while the medium of the other plates was replaced by fresh culture medium (200 μl), to which the test substances were added in various concentrations (0 μM, as well as in the range of 0.001-10 μM; the final concentration of the solvent dimethyl sulfoxide was 0.5%). The cells were incubated for 4 days in the presence of test substances. Cell proliferation was determined by staining the cells with crystal violet: the cells were fixed by adding 20 μl/measuring point of an 11% glutaric aldehyde solution for 15 minutes at room temperature. After three washing cycles of the fixed cells with water, the plates were dried at room temperature. The cells were stained by adding 100 μl/measuring point of a 0.1% crystal violet solution (pH 3.0). After three washing cycles of the stained cells with water, the plates were dried at room temperature. The dye was dissolved by adding 100 μl/measuring point of a 10% acetic acid solution. The extinction was determined by photometry at a wavelength of 595 nm. The change of cell number, in percent, was calculated by normalization of the measured values to the extinction values of the zero-point plate (=0%) and the extinction of the untreated (0 μm) cells (=100%). The IC50 values were determined by means of a 4 parameter fit.

T1 sequence (P50750 whole entry): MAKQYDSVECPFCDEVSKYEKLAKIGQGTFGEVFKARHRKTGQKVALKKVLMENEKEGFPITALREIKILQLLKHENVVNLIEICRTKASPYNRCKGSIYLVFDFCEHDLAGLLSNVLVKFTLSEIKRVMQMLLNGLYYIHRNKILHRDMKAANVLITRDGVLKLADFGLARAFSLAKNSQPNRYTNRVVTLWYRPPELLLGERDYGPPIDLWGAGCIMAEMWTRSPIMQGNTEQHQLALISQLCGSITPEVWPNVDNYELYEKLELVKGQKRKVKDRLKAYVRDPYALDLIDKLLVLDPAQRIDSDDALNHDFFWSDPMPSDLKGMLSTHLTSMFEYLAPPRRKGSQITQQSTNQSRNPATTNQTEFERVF
T1 sequence (O60563 whole entry partner): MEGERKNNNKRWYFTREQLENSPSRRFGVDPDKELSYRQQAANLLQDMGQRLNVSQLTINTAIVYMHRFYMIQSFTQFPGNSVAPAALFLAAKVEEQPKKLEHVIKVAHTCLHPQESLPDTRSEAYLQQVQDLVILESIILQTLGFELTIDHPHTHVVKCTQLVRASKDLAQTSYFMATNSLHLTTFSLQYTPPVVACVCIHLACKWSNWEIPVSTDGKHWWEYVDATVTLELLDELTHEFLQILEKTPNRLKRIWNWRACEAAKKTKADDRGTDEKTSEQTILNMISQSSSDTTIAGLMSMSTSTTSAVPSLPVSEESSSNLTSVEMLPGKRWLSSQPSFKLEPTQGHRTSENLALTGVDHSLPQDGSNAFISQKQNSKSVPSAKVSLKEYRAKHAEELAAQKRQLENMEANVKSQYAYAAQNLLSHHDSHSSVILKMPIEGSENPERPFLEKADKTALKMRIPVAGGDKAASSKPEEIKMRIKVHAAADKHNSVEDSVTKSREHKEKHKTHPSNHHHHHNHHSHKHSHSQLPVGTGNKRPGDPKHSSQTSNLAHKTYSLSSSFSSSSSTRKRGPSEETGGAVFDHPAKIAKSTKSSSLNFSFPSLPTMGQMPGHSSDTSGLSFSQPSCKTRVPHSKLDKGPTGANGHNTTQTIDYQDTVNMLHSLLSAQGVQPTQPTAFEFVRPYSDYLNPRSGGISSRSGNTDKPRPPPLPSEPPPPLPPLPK

SMILES | IC50 (CDK9/CycT1) [nM] | IC50 (CDK2/CycE) [nM] | IC50 [1] [nM]
CS(=O)(=O)Cc1cccc(Nc2ncnc(-c3ccc(F)cc3OCC(F)F)n2)c1 [Example 60, 4-[2-(2,2-Difluoroethoxy)-4-fluorophenyl]-N-{3-[(methylsulfonyl)methyl]phenyl}-1,3,5-triazin-2-amine] | 22 | 1200 | 1100
C[C@@H](Oc1cc(F)ccc1-c1ncnc(Nc2cccc(CS(C)(=O)=O)c2)n1)c1ccc(F)cc1 [Example 67, 4-{4-Fluoro-2-[(1R)-1-(4-fluorophenyl)ethoxy]phenyl}-N-{3-[(methylsulfonyl)-methyl]phenyl}-1,3,5-triazin-2-amine] | 8 | 1300 | 1600
COc1cccc(COc2cc(F)ccc2-c2ncnc(Nc3cccc(CS(C)(=O)=O)c3)n2)c1 [Example 70, 4-{4-Fluoro-2-[(3-methoxybenzyl)oxy]phenyl}-N-{3-[(methylsulfonyl)-methyl]phenyl}-1,3,5-triazin-2-amine] | 14 | 1100 | 1300
CS(=O)(=O)Cc1cccc(Nc2ncnc(-c3ccc(F)cc3OCc3ccccc3F)n2)c1 [Example 71, 4-{4-Fluoro-2-[(2-fluorobenzyl)oxy]phenyl}-N-{3-[(methylsulfonyl)-methyl]phenyl}-1,3,5-triazin-2-amine] | 12 | 2200 | 1170
CS(=O)(=O)Cc1cccc(Nc2ncnc(-c3ccc(F)cc3OCc3ccc(C(F)(F)F)cc3)n2)c1 [Example 73, 4-(4-Fluoro-2-{[4-(trifluoromethyl)benzyl]-oxy}phenyl)-N-{3-[(methylsulfonyl)-methyl]phenyl}-1,3,5-triazin-2-amine] | 12 | ≥ 20000 | 1100
Cc1ccc(COc2cc(F)ccc2-c2ncnc(Nc3cccc(CS(C)(=O)=O)c3)n2)cc1 [Example 77, 4-{4-Fluoro-2-[(4-methylbenzyl)oxy]phenyl}-N-{3-[(methylsulfonyl)-methyl]phenyl}-1,3,5-triazin-2-amine] | 13 | 1600 | 1000
CS(=O)(=O)Cc1cccc(Nc2ncnc(-c3ccc(F)cc3OCc3cccc(F)c3F)n2)c1 [Example 80, 4-{2-[(2,3-Difluorobenzyl)-oxy]-4-fluorophenyl}-N-{3-[(methylsulfonyl)-methyl]phenyl}-1,3,5-triazin-2-amine] | 21 | 2000 | 890

The next molecules have a lower IC50 (CDK9/CycT1) than those just listed; values first:

IC50 (CDK9/CycT1) [nM] | IC50 (CDK2/CycE) [nM] | IC50 [1] [nM] | SMILES
7 | ≥ 20000 | 1160 | CS(=O)(=O)Cc1cccc(Nc2ncnc(-c3ccc(F)cc3OCc3ccc(F)c(F)c3F)n2)c1 [Example 72, 4-{4-Fluoro-2-[(2,3,4-trifluorobenzyl)oxy]-phenyl}-N-{3-[(methylsulfonyl)methyl]-phenyl}-1,3,5-triazin-2-amine]
7 | 570 | 1100 | CS(=O)(=O)Cc1cccc(Nc2ncnc(-c3ccc(F)cc3OCc3cccnc3)n2)c1 [Example 74, 4-[4-Fluoro-2-(pyridin-3-ylmethoxy)phenyl]-N-{3-[(methylsulfonyl)methyl]phenyl}-1,3,5-triazin-2-amine]
6 | 710 | 1000 | CS(=O)(=O)Cc1cccc(Nc2ncnc(-c3ccc(F)cc3OCc3ccc(Cl)cc3)n2)c1 [Example 76, 4-{2-[(4-Chlorobenzyl)oxy]-4-fluorophenyl}-N-{3-[(methylsulfonyl)methyl]phenyl}-1,3,5-triazin-2-amine]
4 | 1300 | 1300 | CS(=O)(=O)Cc1cccc(Nc2ncnc(-c3ccc(F)cc3OCc3cccc(C(F)(F)F)c3)n2)c1 [Example 69, 4-(4-Fluoro-2-{[3-(trifluoromethyl)benzyl]oxy}phenyl)-N-{3-[(methylsulfonyl)-methyl]phenyl}-1,3,5-triazin-2-amine]
3 | 440 | 920 | C[C@@H](Oc1cc(F)ccc1-c1ncnc(Nc2cccc(CS(C)(=O)=O)c2)n1)c1ccccc1 [Example 79, 4-{4-Fluoro-2-[(1R)-1-phenylethoxy]phenyl}-N-{3-[(methylsulfonyl)methyl]phenyl}-1,3,5-triazin-2-amine]
